Measurements from patent US20100024572A1, “POLYMER NEMS FOR CELL […] MICRO[…] P[…] FOR MICRO-BIOCALORIMETER” (CALIFORNIA INSTITUTE OF TECHNOLOGY, priority 2006, published 2010).

Tested on: individual adherent cells
Assay: Force measurement from a single adherent cell on microfluidic embedded polymer NEMS force sensor
Type: cell-based
Conditions: 200 pN force resolution, 10 ms time resolution
Text: Successful micro-fluidic encapsulation is routine and consistently performed at very high yields, (>90%). The force sensing capabilities of the devices have been tested and calibrated by perturbing the force sensors with glass micro-needles mounted on piezo-electric actuators, data shown in FIG. 6A. The force sensors have been tested in micro-fluidics be measuring their response to shear forces generated by fluid flow. The force sensors have been successfully used to measure forces exerted by individual adherent cells and to study the mechanical response of those cells to cytoskeleton perturbing reagents such as Cytochalasin D.
Such measurements were performed with 200 pN force resolution—an improvement of 25 fold over prior art—and 10 ms time resolution—and improvement of 300 fold over prior art.
These measurements were performed with 200 pN force resolution—an improvement of 25 fold over prior art—and 10 ms time resolution—and improvement of 300 fold over prior art.

C=C1[C@@H](C)[C@H]2[C@H](Cc3ccccc3)NC(=O)[C@]23[C@H](OC(C)=O)/C=C/[C@@](C)(O)C(=O)[C@@H](C)C/C=C/[C@H]3[C@@H]1O [Cytochalasin D]
force exerted by a single cell (force vs. time) when Cytochalasin D is removed (after removal of Cytochalasin D): recovery of the force | force exerted by a single cell (force vs. time) when Cytochalasin D is introduced (stable force in growth media before): collapse of that force
